In the NIST ThermoML archive (doi:10.1016/j.jct.2013.09.035):
Numbers after ± are expanded uncertainties.

Assay: wn = mass fraction of the nth substance listed
Settings: Liquid, Vibrating tube method, w2 = 0.5

CCOC(F)(F)C(F)(C(F)(F)F)C(F)(F)F [nonafluoroisobutyl ethyl ether] + CCOC(F)(F)C(F)(F)C(F)(F)C(F)(F)F
Settings	mass density [kg/m3]
283.47 K, 10000 kPa	1482.27 ± 0.59
283.48 K, 100 kPa	1457.82 ± 0.48
283.48 K, 1000 kPa	1460.24 ± 0.49
283.48 K, 3000 kPa	1465.3 ± 0.51
283.48 K, 5000 kPa	1470.22 ± 0.53
283.48 K, 25000 kPa	1513.47 ± 0.85
283.48 K, 30000 kPa	1522.25 ± 0.96
283.49 K, 15000 kPa	1493.18 ± 0.67
283.49 K, 20000 kPa	1503.4 ± 0.75
283.49 K, 40000 kPa	1538.97 ± 1.2
283.49 K, 50000 kPa	1553.61 ± 1.4
283.49 K, 80000 kPa	1591.2 ± 2.2
283.49 K, 90000 kPa	1602.13 ± 2.5
283.49 K, 100000 kPa	1612.51 ± 2.8
283.5 K, 60000 kPa	1567.59 ± 1.7
283.5 K, 70000 kPa	1579.58 ± 2
293.33 K, 40000 kPa	1520.74 ± 1.2
293.33 K, 50000 kPa	1536.34 ± 1.4
293.34 K, 100 kPa	1433.67 ± 0.47
293.34 K, 3000 kPa	1442.2 ± 0.51
293.34 K, 5000 kPa	1447.74 ± 0.52
293.34 K, 10000 kPa	1460.66 ± 0.59
293.34 K, 25000 kPa	1493.61 ± 0.82
293.34 K, 80000 kPa	1575.81 ± 2.2
293.35 K, 15000 kPa	1472.51 ± 0.65
293.35 K, 20000 kPa	1483.44 ± 0.73
293.35 K, 70010 kPa	1563.65 ± 1.9
293.35 K, 100000 kPa	1597.56 ± 2.7
293.36 K, 1000 kPa	1436.34 ± 0.49
293.36 K, 30000 kPa	1503.18 ± 0.93
293.36 K, 60000 kPa	1550.72 ± 1.7
293.36 K, 90000 kPa	1586.86 ± 2.4
303.23 K, 100 kPa	1410.99 ± 0.51
303.23 K, 1000 kPa	1413.95 ± 0.5
303.23 K, 3000 kPa	1420.34 ± 0.52
303.23 K, 5000 kPa	1426.43 ± 0.52
303.23 K, 10000 kPa	1440.51 ± 0.58
303.23 K, 15000 kPa	1453.28 ± 0.64
303.23 K, 30000 kPa	1485.94 ± 0.9
303.23 K, 40000 kPa	1504.31 ± 1.1
303.23 K, 70000 kPa	1549.38 ± 1.9
303.23 K, 90000 kPa	1573.69 ± 2.4
303.23 K, 100000 kPa	1584.73 ± 2.6
303.24 K, 20000 kPa	1464.95 ± 0.71
303.24 K, 25000 kPa	1475.81 ± 0.8
303.24 K, 50000 kPa	1520.78 ± 1.4
303.24 K, 60000 kPa	1535.65 ± 1.6
303.24 K, 80000 kPa	1561.98 ± 2.1
313.14 K, 40000 kPa	1487.04 ± 1.1
313.15 K, 25000 kPa	1456.84 ± 0.78
313.15 K, 50000 kPa	1504.3 ± 1.3
313.15 K, 60000 kPa	1519.95 ± 1.6
313.16 K, 15000 kPa	1432.86 ± 0.63
313.16 K, 20000 kPa	1445.3 ± 0.7
313.16 K, 30000 kPa	1467.53 ± 0.87
313.17 K, 1000 kPa	1390.04 ± 0.5
313.17 K, 5000 kPa	1403.68 ± 0.52
313.17 K, 10000 kPa	1418.95 ± 0.57
313.17 K, 100000 kPa	1571.77 ± 2.6
313.18 K, 100 kPa	1386.8 ± 0.49
313.18 K, 3000 kPa	1397.04 ± 0.52
313.18 K, 90000 kPa	1559.98 ± 2.3
313.19 K, 70000 kPa	1535.1 ± 1.8
313.19 K, 80000 kPa	1547.94 ± 2.1
323.03 K, 70000 kPa	1522.41 ± 1.8
323.03 K, 79990 kPa	1535.93 ± 2
323.03 K, 90000 kPa	1548.47 ± 2.3
323.03 K, 100000 kPa	1560.39 ± 2.5
323.04 K, 15000 kPa	1415.6 ± 0.62
323.04 K, 20000 kPa	1429.06 ± 0.69
323.04 K, 25000 kPa	1441.36 ± 0.76
323.04 K, 30000 kPa	1452.73 ± 0.85
323.04 K, 40000 kPa	1473.17 ± 1.1
323.04 K, 50000 kPa	1491.32 ± 1.3
323.04 K, 60000 kPa	1507.67 ± 1.6
323.05 K, 100 kPa	1365.33 ± 0.56
323.05 K, 1000 kPa	1368.99 ± 0.53
323.05 K, 3000 kPa	1376.71 ± 0.53
323.05 K, 5000 kPa	1384.07 ± 0.53
323.05 K, 10000 kPa	1400.75 ± 0.57
332.93 K, 80000 kPa	1522.17 ± 2
332.93 K, 90000 kPa	1535.21 ± 2.2
332.93 K, 100000 kPa	1547.28 ± 2.5
332.94 K, 15000 kPa	1395.61 ± 0.62
332.94 K, 20000 kPa	1409.99 ± 0.67
332.94 K, 25000 kPa	1423.08 ± 0.74
332.94 K, 30000 kPa	1435.1 ± 0.82
332.94 K, 40000 kPa	1456.69 ± 1
332.94 K, 50000 kPa	1475.63 ± 1.2
332.94 K, 60000 kPa	1492.7 ± 1.5
332.94 K, 70000 kPa	1508.09 ± 1.7
332.95 K, 100 kPa	1340.66 ± 0.54
332.95 K, 1000 kPa	1344.7 ± 0.55
332.95 K, 3000 kPa	1353.32 ± 0.55
332.95 K, 5000 kPa	1361.37 ± 0.54
332.95 K, 10000 kPa	1379.59 ± 0.57
342.83 K, 100 kPa	1316.31 ± 0.58
342.83 K, 3000 kPa	1330.5 ± 0.57
342.84 K, 1000 kPa	1320.87 ± 0.57
342.84 K, 5000 kPa	1339.38 ± 0.55
342.85 K, 10000 kPa	1359.29 ± 0.57
342.85 K, 15000 kPa	1376.59 ± 0.61
342.85 K, 20000 kPa	1391.96 ± 0.66
342.86 K, 25000 kPa	1405.93 ± 0.73
342.86 K, 30000 kPa	1418.67 ± 0.8
342.86 K, 40000 kPa	1441.37 ± 1
342.87 K, 60000 kPa	1479.04 ± 1.5
342.87 K, 69990 kPa	1494.97 ± 1.7
342.87 K, 80000 kPa	1509.52 ± 1.9
342.88 K, 50000 kPa	1461.22 ± 1.2
342.88 K, 90000 kPa	1522.96 ± 2.2
342.88 K, 100000 kPa	1535.5 ± 2.4
352.77 K, 3000 kPa	1307.3 ± 0.6
352.78 K, 1000 kPa	1296.47 ± 0.62
352.78 K, 5000 kPa	1317.18 ± 0.58
352.78 K, 10000 kPa	1339.03 ± 0.58
352.78 K, 15000 kPa	1357.74 ± 0.61
352.78 K, 20000 kPa	1374.27 ± 0.65
352.78 K, 25000 kPa	1389.09 ± 0.71
352.78 K, 30000 kPa	1402.65 ± 0.78
352.78 K, 40000 kPa	1426.56 ± 0.97
352.78 K, 50000 kPa	1447.34 ± 1.2
352.78 K, 60000 kPa	1465.76 ± 1.4
352.79 K, 70000 kPa	1482.51 ± 1.7
352.79 K, 80000 kPa	1497.6 ± 1.9
352.79 K, 90000 kPa	1511.48 ± 2.1
352.79 K, 100000 kPa	1524.4 ± 2.4
362.72 K, 1000 kPa	1270.63 ± 0.66
362.72 K, 3000 kPa	1282.75 ± 0.63
362.73 K, 5000 kPa	1293.79 ± 0.6
362.73 K, 10000 kPa	1317.75 ± 0.59
362.73 K, 15000 kPa	1338.07 ± 0.61
362.73 K, 20000 kPa	1355.77 ± 0.64
362.73 K, 25000 kPa	1371.52 ± 0.7
362.73 K, 30000 kPa	1385.83 ± 0.76
362.73 K, 40000 kPa	1410.97 ± 0.94
362.73 K, 50000 kPa	1432.73 ± 1.1
362.73 K, 60000 kPa	1451.97 ± 1.4
362.73 K, 70000 kPa	1469.11 ± 1.6
362.73 K, 80000 kPa	1484.73 ± 1.9
362.73 K, 90000 kPa	1499.1 ± 2.1
362.73 K, 100000 kPa	1512.38 ± 2.3
